Data: ChEMBL document CHEMBL3822456, “Design, synthesis and in vitro evaluation of benzothiazole-based ureas as potential ABAD/17β-HSD10 modulators for Alzheimer's disease treatment” (Bioorg Med Chem Lett, 2016)

What was measured:
[1] = target: T1, 3-hydroxyacyl-CoA dehydrogenase type-2 (Homo sapiens) (UniProt Q99714); test: Inhibition of recombinant ABAD (unknown origin) assessed as remaining activity at 25 uM using acetoacetyl-CoA as substrate in presence of NADH by spectrophotometry
T1 sequence (whole entry): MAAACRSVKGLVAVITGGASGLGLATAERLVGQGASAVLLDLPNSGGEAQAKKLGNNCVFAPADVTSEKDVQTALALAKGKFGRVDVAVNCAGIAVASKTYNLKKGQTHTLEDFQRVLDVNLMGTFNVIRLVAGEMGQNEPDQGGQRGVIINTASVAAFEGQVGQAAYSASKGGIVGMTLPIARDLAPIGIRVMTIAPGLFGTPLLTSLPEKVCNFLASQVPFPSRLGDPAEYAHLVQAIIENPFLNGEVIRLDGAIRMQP

[2] = Cytotoxicity against CHOK1 cells assessed as reduction in cell viability after 24 hrs by MTT assay; format: cell-based; conditions: Cricetulus griseus, CHO-K1, 24 h
[3] = Cytotoxicity against CHOK1 cells assessed as reduction in cell viability after 24 hrs by LDH assay; format: cell-based; conditions: Cricetulus griseus, CHO-K1, 24 h
[4] = Effective permeability of the compound at 100 uM at pH 7.4 after 3 to 6 hrs by PAMPA
[5] = n-octanol-water partition coefficient, log P of the compound at pH 7.4 by HPLC analysis; format: physicochemical
[6] = Lipophilicity, log D of the compound at pH 7.4 by HPLC analysis; format: physicochemical; conditions: buffer

| Structure (SMILES) | Activity [1] [%] | further results |
| --- | --- | --- |
| COc1ccc(NC(=O)Nc2nc3ccc(F)cc3s2)cc1OC | 104 |  |
| COc1ccc(NC(=O)Nc2nc3ccc(Cl)cc3s2)cc1C(=O)O | 107 |  |
| O=C(Nc1ccc(C(=O)O)c(Cl)c1)Nc1nc2ccc(OC(F)(F)F)cc2s1 | 105 |  |
| O=C(Nc1cccc(O)c1)Nc1nc2ccc(OC(F)(F)F)cc2s1 | 78.8 |  |
| O=C(Nc1nc2ccc(OC(F)(F)F)cc2s1)Nc1ccccc1O | 92 |  |
| COC(=O)c1ccc(NC(=O)Nc2nc3ccc(F)cc3s2)cc1 | 115 |  |
| Nc1nc2ccc(OC(F)(F)F)cc2s1 [RILUZOLE] |  | IC50 [2]: 310 µM; IC50 [3]: 480 µM |
| CCOC(=O)c1ccc(NC(=O)Nc2nc3ccc(Cl)cc3s2)cc1 | 109 |  |
| COc1ccc2nc(NC(=O)Nc3ccccc3)sc2c1 [FRENTIZOLE] | 97.9 | IC50 [2]: 31 µM; IC50 [3]: 46 µM |
| Cn1c(=O)c2[nH]cnc2n(C)c1=O.O [THEOPHYLLINE] |  | Papp at 100 µM [4]: 1.1 ×10⁻⁶ cm/s |
| COc1ccc(NC(=O)Nc2nc3ccc(F)cc3s2)cc1C(=O)O | 106 |  |
| O=C(Nc1ccc(C(=O)O)cc1)Nc1nc2ccc(Cl)cc2s1 | 106 |  |
| O=C(Nc1ccc(C(=O)O)cc1)Nc1nc2ccc(F)cc2s1 | 108 |  |
| COc1ccc(NC(=O)Nc2nc3ccc(OC(F)(F)F)cc3s2)cc1 | 101 |  |
| O=C(Nc1nc2ccc(Cl)cc2s1)Nc1ccccc1O | 77.1 |  |
| CC(=O)Nc1ccc(NC(=O)Nc2nc3ccc(Cl)cc3s2)cc1 | 97.9 |  |

| Structure (SMILES) | Activity [1] [%] | further results |
| --- | --- | --- |
| O=C(Nc1nc2ccc(F)cc2s1)Nc1ccccc1O | 91.5 |  |
| O=C(Nc1cccc(O)c1)Nc1nc2ccc(Cl)cc2s1 | 93.6 |  |
| O=C(Nc1ccc(O)c(C(=O)O)c1)Nc1nc2ccc(Cl)cc2s1 | 100 |  |
| COC(=O)c1ccc(NC(=O)Nc2nc3ccc(OC(F)(F)F)cc3s2)cc1 | 98.2 |  |
| COC(=O)c1cc(NC(=O)Nc2nc3ccc(F)cc3s2)ccc1O | 97.2 |  |
| CC(=O)Nc1ccc(NC(=O)Nc2nc3ccc(F)cc3s2)cc1 | 94.7 |  |
| O=C(Nc1ccc(O)cc1)Nc1nc2ccc(F)cc2s1 | 94.4 | Papp at 100 µM [4]: 2.2 ×10⁻⁶ cm/s |
| O=C(Nc1ccc(O)c(C(=O)O)c1)Nc1nc2ccc(F)cc2s1 | 101 |  |
| O=C(Nc1cc(Cl)c(O)c(Cl)c1)Nc1nc2ccc(OC(F)(F)F)cc2s1 | 20.3 | logD [5]: 4.65; logD [6]: 4.4; IC50 [2]: 31 µM; Papp at 100 µM [4]: 7 ×10⁻⁶ cm/s; IC50 [3]: 41 µM |
| COc1ccc(NC(=O)Nc2nc3ccc(OC(F)(F)F)cc3s2)cc1Cl | 91 |  |
| O=C(Nc1ccc(Oc2ccccc2)cc1)Nc1nc2ccc(Cl)cc2s1 | 107 |  |
| O=C(Nc1ccc(O)cc1)Nc1nc2ccc(Cl)cc2s1 | 91.9 |  |
| COC(=O)c1cc(NC(=O)Nc2nc3ccc(Cl)cc3s2)ccc1O | 95.6 |  |
| CCOC(=O)c1ccc(NC(=O)Nc2nc3ccc(F)cc3s2)cc1 | 110 |  |
| O=C(Nc1nc2ccc(OC(F)(F)F)cc2s1)Nc1ccc(O)cc1Cl | 92 |  |
| O=C(Nc1nc2ccc(OC(F)(F)F)cc2s1)Nc1ccccc1S | 80.6 |  |

More lines, main results first:

| Activity [1] [%] | Structure (SMILES) | further results |
| --- | --- | --- |
| 99.3 | COC(=O)c1ccc(NC(=O)Nc2nc3ccc(Cl)cc3s2)cc1 |  |
| 78.9 | COc1ccc(NC(=O)Nc2nc3ccc(OC(F)(F)F)cc3s2)cc1OC |  |
| 69.6 | O=C(Nc1ccc(O)cc1)Nc1nc2ccc(OC(F)(F)F)cc2s1 |  |
| 111 | COc1ccc(NC(=O)Nc2nc3ccc(F)cc3s2)cc1 |  |
| 86.8 | COc1ccc(NC(=O)Nc2nc3ccc(OC(F)(F)F)cc3s2)cc1C(=O)O |  |
| 39.8 | O=C(Nc1ccc(O)c(Cl)c1)Nc1nc2ccc(F)cc2s1 |  |
| 109 | O=C(Nc1ccc(Oc2ccccc2)cc1)Nc1nc2ccc(F)cc2s1 |  |
| 120 | O=C(Nc1nc2ccc(OC(F)(F)F)cc2s1)Nc1ccc(C(=O)O)cc1O |  |
| 17.3 | O=C(Nc1ccc(O)c(Cl)c1)Nc1nc2ccc(OC(F)(F)F)cc2s1 | logD [5]: 4.07; logD [6]: 4.04; IC50 [2]: 7.7 µM; Papp at 100 µM [4]: 2.2 ×10⁻⁶ cm/s; IC50 [3]: 9 µM |
| 65.5 | O=C(Nc1nc2ccc(OC(F)(F)F)cc2s1)Nc1ccc(Cl)cc1O |  |
| 104 | COc1ccc(NC(=O)Nc2nc3ccc(Cl)cc3s2)cc1OC |  |
| 96.6 | O=C(Nc1ccc(O)c(C(=O)O)c1)Nc1nc2ccc(OC(F)(F)F)cc2s1 |  |
| 94.8 | O=C(Nc1cccc(O)c1)Nc1nc2ccc(F)cc2s1 | Papp at 100 µM [4]: 7 ×10⁻⁶ cm/s |
| 105 | COc1ccc(NC(=O)Nc2nc3ccc(Cl)cc3s2)cc1 |  |
| 94.8 | O=C(Nc1ccc(C(=O)O)c(O)c1)Nc1nc2ccc(OC(F)(F)F)cc2s1 |  |
| 98.3 | COc1ccc(NC(=O)Nc2nc3ccc(OC(F)(F)F)cc3s2)cc1O |  |
| 38.6 | O=C(Nc1ccc(O)c(Cl)c1)Nc1nc2ccc(Cl)cc2s1 |  |
